These results are taken from patent US9669063B2, “Composition for prevention, amelioration or treatment of metabolic syndrome” (MORISHITA JINTAN CO., LTD., priority 2012, dated 2017).

The test system of this test is diet-induced obese mice. Briefly: Test Example 2: diet-induced obese mice on low-calorie feed with RHP, caffeine or their mixture, body weight, calorie intake, epididymal fat. In kind it is in vivo, KK mice. Here is the method:
Mice were fed with a high-calorie feed for the preparation of diet-induced obese mice. The calorie intake of the diet-induced obese mice was restricted so as to induce a state of facilitated resolution and utilization of body fat, and then the composition of the present invention containing a rose hip extract and caffeine was given to the mice. In this way, examination was conducted to determine whether the composition could facilitate the resolution and utilization of body fat and thereby ameliorate obesity. Five-week-old male KK mice were fed with water and the powder feed for breeding for three days, and then fed with the high-calorie feed for 3 weeks for the preparation of diet-induced obese mice. The diet-induced obese mice were divided into three groups (six mice per group) and fed with the feed (1) to (3) shown below for 2 weeks. The feeds given to the test groups are as follows. […] After the end of the test, the mice were euthanized, and epididymal fat tissue was harvested and weighed. […] The results are shown as the mean±SD of each group. Diet-induced obese mice were divided into four groups (six mice per group) and fed with the feed (4) to (7) shown below. Other test conditions were the same as in Test Example 1. The results in Table 3 were statistically analyzed by Dunnett's multiple comparison test. The symbol ** indicates a significant difference with a risk less than 1% from the control group.

Consider `Cn1c(=O)c2c(ncn2C)n(C)c1=O` [caffeine], for which, where the note is “0.025 mass % caffeine in low-calorie feed”, the “reduction in weight of epididymal fat tissue as compared with the control group” value stood at 9.2%. Further, the “statistical significance of fat-reducing effect vs control” value (0.025 mass % caffeine in low-calorie feed, Dunnett's test) is “none of them showed any statistically significant fat-reducing effect”. Besides, the Body weight (low-calorie feed + 0.025 mass % caffeine, 2 weeks, last day of test, mean±SD) is 35.2 ± 1.8 g. In addition, the Epididymal fat weight (low-calorie feed + 0.025 mass % caffeine, 2 weeks, mean±SD) is recorded as 1.60 ± 0.19 g/100 g body weight.
